The NIST ThermoML archive (doi:10.1021/je0342320)

Details: Liquid, Vibrating tube method

CCCCCCCCCC [decane]
mass density [kg/m3]
Details	100 kPa	5000 kPa	10000 kPa	15000 kPa	20000 kPa	25000 kPa	30000 kPa	35000 kPa	40000 kPa
308.15 K	718.65	722.52	726.36	730.01	733.55	737.01	740.13	743.26	746.32
313.15 K	714.79	718.83	722.76	726.52	730.14	733.61	736.95	740.17	743.25
318.15 K	710.99	715.08	719.13	722.99	726.69	730.22	733.65	736.93	740.05
323.15 K	707.17	711.4	715.55	719.49	723.28	726.9	730.37	733.71	736.93
328.15 K	703.3	707.67	711.97	716.03	719.87	723.57	727.1	730.51	733.79
